Patent US20230135894A1, “MK2 DEGRADERS AND USES THEREOF” (Kymera Therapeutics, Inc., priority 2021, published 2023)

How the values were obtained:
MK2 [1] = target: T1, MK2 (Homo sapiens, UniProt P49137); assay: MK2 degradation in human THP-1 monocytic cells (MSD, 24 h); type: cell-based; design: endogenous in cells; key to MK2 MSD THP-1 degradation 24 h GMean External Abs DC50: A (<0.001 μM); B (0.001-0.01 μM); C (0.01-0.1 μM); D (>0.1 μM); —: “-”=not tested or inactive; conditions: for Dmax: THP-1, THP-1 cells; for DC50: read-out: MK2 MSD THP-1 degradation 24 h GMean External Abs DC50
T1 sequence (P49137 whole entry): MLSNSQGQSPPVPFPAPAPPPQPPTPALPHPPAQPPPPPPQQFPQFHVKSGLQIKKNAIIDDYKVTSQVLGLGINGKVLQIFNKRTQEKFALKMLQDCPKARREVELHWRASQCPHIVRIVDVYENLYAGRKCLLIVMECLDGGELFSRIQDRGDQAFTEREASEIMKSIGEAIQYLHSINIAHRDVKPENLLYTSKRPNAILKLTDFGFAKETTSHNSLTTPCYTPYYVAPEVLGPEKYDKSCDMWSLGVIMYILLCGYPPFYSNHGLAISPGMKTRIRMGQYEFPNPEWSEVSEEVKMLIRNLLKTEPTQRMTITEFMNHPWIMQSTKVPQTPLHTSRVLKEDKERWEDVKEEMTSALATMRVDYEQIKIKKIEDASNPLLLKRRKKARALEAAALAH
Outline: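 Readout: residual MK2 protein in THP-1 lysates, measured by MSD electrochemiluminescence sandwich assay after 24 h compound exposure (≤10-point serial dilutions, 0.1% DMSO, 37 °C). Curves normalised between lysis-buffer and DMSO-cell signals; DC50 by 4-parameter logistic fit.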

MK2 [2] = target: T1, MK2; assay: MK2 degradation in human SW1353 cells (MSD, 24 h); type: cell-based; design: endogenous in cells; host or cells: SW-1353 (ATCC HTB-94); key to MK2 MSD SW1353 degradation 24 h GMean External Abs DC50: A (<0.001 μM); B (0.001-0.01 μM); C (0.01-0.1 μM); D (>0.1 μM); —: “-”=not tested or inactive; key to MK2 MSD SW 1353 24 h Dmax %: —: “-”=not tested or inactive; conditions: for Dmax: read-out: MK2 MSD SW 1353 24 h Dmax %; for DC50: read-out: MK2 MSD SW1353 degradation 24 h GMean External Abs DC50
Outline: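 DC50 derived by 4-parameter logistic fit, with DMSO-treated signal as top and lysis-buffer signal as bottom. Remaining MK2 was measured by MSD electrochemiluminescent sandwich assay in RIPA lysates of human SW1353 cells exposed for 24 h at 37 °C to serially diluted compound in 0.1% DMSO.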

SMILES	Dmax (MK2 [1]) [%]	DC50 (MK2 [1]; THP-1 cells) [nM]	Dmax (MK2 [2]) [%]	DC50 (MK2 [2]) [nM]	MK2 MSD SW 1353 24 h Dmax % (MK2 [2])	MK2 MSD THP-1 degradation 24 h GMean External Abs DC50 (MK2 [1]; THP-1 cells)	MK2 MSD SW1353 degradation 24 h GMean External Abs DC50 (MK2 [2])
C[C@@H]1CNc2c(sc3ccc4nc(-c5cnc(N6CCC(CN7CCN(c8ccc9c(c8)n(C)c(=O)n9C8CCC(=O)NC8=O)CC7)CC6)nc5)ccc4c23)C(=O)N1 (stereo partly drawn) [Compound I-271]	> 75	< 1	> 75	< 1			
C[C@@H]1CNc2c(sc3ccc4nc(-c5ccc(N6CCC(CN7CCC(c8ccc9c(c8)n(C)c(=O)n9C8CCC(=O)NC8=O)CC7)CC6)cc5F)ccc4c23)C(=O)N1 (stereo partly drawn) [Compound I-297]	> 75	< 1	> 75	< 1			
C[C@@H]1CNc2c(sc3ccc4nc(-c5cccc(N6CCN(C(=O)COCCOCCc7cccc8c7n(C)c(=O)n8C7CCC(=O)N(C)C7=O)CC6)c5)ccc4c23)C(=O)N1 (stereo partly drawn) [Compound I-318]	< 50	> 100	< 50	> 100			
CN1CC2(CNC(=O)c3c2[nH]c2c3CCc3cnc(-c4ccc(CN5CCC(OCC#Cc6cccc7c6n(C)c(=O)n7C6CCC(=O)NC6=O)CC5)cc4F)cc3-2)C1 (stereo not drawn) [Compound I-2]	< 50	> 100	< 50	> 100			
C[C@@H]1CNc2c(sc3ccc4nc(-c5cncc(N6CCN(CC7CCN(c8ccc9c(c8)n(C)c(=O)n9C8CCC(=O)NC8=O)CC7)CC6)c5)ccc4c23)C(=O)N1 (stereo partly drawn) [Compound I-161]	> 75	< 1	> 75	< 1			
C[C@@H]1CNc2c(sc3ccc4nc(-c5ccc(N6CCC7(CC6)CN(CCCCCCc6cccc8c6n(C)c(=O)n8C6CCC(=O)NC6=O)C7)cc5)ccc4c23)C(=O)N1 (stereo partly drawn) [Compound I-294]	> 75	< 1	> 75	1 to 10			
C[C@@H]1CNc2c(sc3ccc4nc(-c5ccc(N6CCN(CC7CN(c8ccc9c(c8)n(C)c(=O)n9C8CCC(=O)NC8=O)C7)CC6)cc5Cl)ccc4c23)C(=O)N1 (stereo partly drawn) [Compound I-235]	> 75	< 1	> 75	< 1			
C[C@@H]1CNc2c(sc3ccc4nc(-c5ccc(N6CCC(CN7CCN(c8ccc9c(c8)n(C)c(=O)n9C8CCC(=O)NC8=O)CC7)CC6)cc5F)ccc4c23)C(=O)N1 (stereo partly drawn) [Compound I-306]	> 75	< 1	> 75	< 1			
C[C@@H]1CNc2c(sc3ccc4nc(N5CCCN(CC6CCN(c7ccc8c(c7)n(C)c(=O)n8C7CCC(=O)NC7=O)CC6)CC5)ccc4c23)C(=O)N1 (stereo partly drawn) [Compound I-446]	< 50	> 100	< 50	> 100			
C[C@@H]1CN(C)c2c(sc3ccc4nc(-c5ccc(N6CCN(CCc7cccc8c7n(C)c(=O)n8C7CCC(=O)NC7=O)CC6)nc5)ccc4c23)C(=O)N1 (stereo partly drawn) [Compound I-414]	> 75	1 to 10	> 75	< 1			
C[C@@H]1CNc2c(sc3ccc4nc(-c5cccc(C6CCN(CCN7CCC(CCc8cccc9c8n(C)c(=O)n9C8CCC(=O)NC8=O)CC7)CC6)c5)ccc4c23)C(=O)N1 (stereo partly drawn) [Compound I-296]		1 to 10		10 to 100	—		
C[C@@H]1CNc2c(sc3ccc4nc(-c5cnc(N6CCN(CC7CCN(c8ccc9c(c8)n(C)c(=O)n9C8CCC(=O)NC8=O)CC7)CC6)nc5)ccc4c23)C(=O)N1 (stereo partly drawn) [Compound I-282]	> 75	< 1	> 75	< 1			
C[C@@H]1CNc2c(sc3ccc4nc(N5C[C@@H]6C[C@H]5CN6CC5CCN(c6cccc7c6n(C)c(=O)n7C6CCC(=O)NC6=O)CC5)ccc4c23)C(=O)N1 (stereo partly drawn) [Compound I-187]	< 50	> 100	< 50	> 100			
C[C@@H]1CNc2c(sc3ccc4nc(-c5cc(N6CCC(CN7CCC(c8cccc9c8n(C)c(=O)n9C8CCC(=O)NC8=O)CC7)CC6)ccc5F)ccc4c23)C(=O)N1 (stereo partly drawn) [Compound I-284]	> 75	1 to 10	> 75	1 to 10			
C[C@@H]1CNc2c(sc3ccc4nc(-c5ccc(N6CCN(C7CC(c8cccc9c8n(C)c(=O)n9C8CCC(=O)NC8=O)C7)CC6)cc5)ccc4c23)C(=O)N1 (stereo partly drawn) [Compound I-246]	> 75	< 1	> 75	< 1			
Cn1c(=O)n(C2CCC(=O)NC2=O)c2ccc(N3CCC(CN4CCN(c5ccc6oc(-c7cc(Nc8ccnc(N)n8)cc8cn[nH]c78)cc6c5)CC4)CC3)cc21 (stereo not drawn) [Compound I-429]	< 50	> 100	< 50	> 100			

SMILES	Dmax (MK2 [1]) [%]	DC50 (MK2 [1]; THP-1 cells) [nM]	Dmax (MK2 [2]) [%]	DC50 (MK2 [2]) [nM]	MK2 MSD SW 1353 24 h Dmax % (MK2 [2])	MK2 MSD THP-1 degradation 24 h GMean External Abs DC50 (MK2 [1]; THP-1 cells)	MK2 MSD SW1353 degradation 24 h GMean External Abs DC50 (MK2 [2])
C[C@@H]1CNc2c(sc3ccc4nc(-c5ccc(N6CCN(CC7CN(c8ccc9c(c8)n(C)c(=O)n9C8CCC(=O)NC8=O)C7)CC6)cc5F)ccc4c23)C(=O)N1 (stereo partly drawn) [Compound I-237]	> 75	< 1	> 75	< 1			
C[C@@H]1CNc2c(sc3ccc4nc(-c5cccc(N6CCC(CN7CCC(CCc8cccc9c8n(C)c(=O)n9C8CCC(=O)NC8=O)CC7)CC6)c5)ccc4c23)C(=O)N1 (stereo partly drawn) [Compound I-106]	> 75	< 1	> 75	1 to 10			
C[C@@H]1CNc2c(sc3ccc4nc(-c5cccc(C#CCNC(=O)COCCOCCc6cccc7c6n(C)c(=O)n7C6CCC(=O)NC6=O)c5)ccc4c23)C(=O)N1 (stereo partly drawn) [Compound I-50]	> 75	1 to 10	> 75	1 to 10			
COc1cccc(-c2cc(N3CCN(CC4CCN(c5ccc6c(c5)n(C)c(=O)n6C5CCC(=O)NC5=O)CC4)CC3)cc(-n3cc(-c4ccc5c(c4)CCNC5=O)c(N)n3)c2)c1 (stereo not drawn) [Compound I-460]	< 50	> 100	< 50	> 100			
Cn1c(=O)n(C2CCC(=O)NC2=O)c2cccc(N3CCC(CN4CCC5(CC4)CNC(=O)c4c5[nH]c5c4CCc4cnc(-c6ccccc6F)cc4-5)CC3)c21 (stereo not drawn) [Compound I-316]	< 50	> 100	< 50	> 100			
C[C@@H]1CNc2c(sc3ccc4nc(N5CCC6(CCN(CC7CCN(c8ccc9c(c8)n(C)c(=O)n9C8CCC(=O)NC8=O)CC7)CC6)CC5)ccc4c23)C(=O)N1 (stereo partly drawn) [Compound I-389]	< 50	> 100	< 50	> 100			
C[C@@H]1CNc2c(sc3ccc4nc(N5CCC6(CC5)CC(N5CCN(c7ccc8c(c7)n(C)c(=O)n8C7CCC(=O)NC7=O)CC5)C6)ccc4c23)C(=O)N1 (stereo partly drawn) [Compound I-185]	> 75		> 75			—	—
Cn1c(=O)n(C2CCC(=O)NC2=O)c2ccc(N3CCC(CN4CCN(c5cc(-c6cc(-c7cc8c([nH]7)CCNC8=O)ccn6)cc(C6CCCC6)c5)CC4)CC3)cc21 (stereo not drawn) [Compound I-193]	< 50	> 100		> 100	—		
C[C@@H]1CNc2c(sc3ccc4nc(N5CC6CCC(C5)N6CC5CCN(c6ccc7c(c6)n(C)c(=O)n7C6CCC(=O)NC6=O)CC5)ccc4c23)C(=O)N1 (stereo partly drawn) [Compound I-433]	< 50	> 100	< 50	> 100			
Cn1c(=O)n(C2CCC(=O)NC2=O)c2ccc(N3CCC(CN4CCN(c5ccc(-c6cc(-c7cc8c([nH]7)C7(CCCC7)CNC8=O)ccn6)cc5)CC4)CC3)cc21 (stereo not drawn) [Compound I-192]	> 75	< 1	> 75	< 1			
C[C@@H]1CNc2c(sc3ccc4nc(-c5ccc(N6CCN(CC7CCN(c8cccc9c8n(C)c(=O)n9C8CCC(=O)NC8=O)CC7)CC6)nc5)ccc4c23)C(=O)N1 (stereo partly drawn) [Compound I-125]	> 75	< 1	> 75	< 1			
Cc1cc(-c2cc(-c3cc4c([nH]3)C3(CC3)CNC4=O)ccn2)cc(C)c1N1CCN(CC2CCN(c3ccc4c(c3)n(C)c(=O)n4C3CCC(=O)NC3=O)CC2)CC1 (stereo not drawn) [Compound I-194]	> 75	< 1	> 75	< 1			
O=C1CCN(c2cncc3c(N4CCN(CC5CCN(c6ccc(-c7cc(-c8cc9c([nH]8)CCNC9=O)ccn7)cc6)CC5)CC4)cccc23)C(=O)N1 [Compound I-198]	> 75	10 to 100			—		—
C[C@@H]1CNc2c(sc3ccc4nc(-c5cccc(N6CCN(CCCCCCCCCCc7ccc8c(c7)n(C)c(=O)n8C7CCC(=O)NC7=O)CC6)c5)ccc4c23)C(=O)N1 (stereo partly drawn) [Compound I-178]	> 75	10 to 100	> 75	10 to 100			
C[C@@H]1CNc2c(sc3ccc4nc(-c5cccc(C#CCCNC(=O)CCCCCCCCCc6ccc7c(c6)n(C)c(=O)n7C6CCC(=O)NC6=O)c5)ccc4c23)C(=O)N1 (stereo partly drawn) [Compound I-45]	> 75	10 to 100	> 75	10 to 100			
